Article PMC7808659, “Lotus japonicus karrikin receptors display divergent ligand-binding specificities and organ-dependent redundancy” (PLoS Genetics, 2020)

Assays:
LjKAI2b [1] = target: LjKAI2b (Lotus japonicus, UniProt I3S3D1, W158F/M161L/L191S); assay: differential scanning fluorimetry; intrinsic tryptophan fluorescence; type: binding; settings: SYPRO Tangerine; shift from 25 uM
From the text: differential scanning fluorimetry; intrinsic tryptophan fluorescence on LjKAI2b | LjKAI2b^[…],[…],F158 gained a strong response to GR24^ent-5DS

LjKAI2b [2] = target: LjKAI2b (Lotus japonicus, UniProt I3S3D1, W158F); assay: as above; type: binding; settings: SYPRO Tangerine; response like wild-type LjKAI2a
LjKAI2b (Lotus japonicus, UniProt I3S3D1, W158F), sequence (I3S3D1 entry or part of it W158F): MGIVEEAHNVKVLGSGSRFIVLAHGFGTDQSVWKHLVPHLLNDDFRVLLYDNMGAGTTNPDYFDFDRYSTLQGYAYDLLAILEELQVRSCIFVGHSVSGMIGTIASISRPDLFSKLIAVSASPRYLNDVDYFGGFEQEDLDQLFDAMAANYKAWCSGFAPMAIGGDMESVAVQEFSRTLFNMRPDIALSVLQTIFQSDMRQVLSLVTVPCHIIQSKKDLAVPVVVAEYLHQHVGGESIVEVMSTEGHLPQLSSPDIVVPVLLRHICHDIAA

LjKAI2b (Lotus japonicus, UniProt I3S3D1, W158F/M161L/L191S), sequence (I3S3D1 entry or part of it W158F/M161L/L191S): as the sequence (I3S3D1 entry or part of it W158F) above, with M161L, L191S counted along it

CC1=C[C@@H](O/C=C2/C(=O)O[C@H]3c4ccccc4C[C@@H]23)OC1=O (racemic) [GR24^ent-5DS]
differential scanning fluorimetry; intrinsic tryptophan fluorescence (LjKAI2b [1]): LjKAI2b^L161,S191,F158 gained a strong response to GR24^ent-5DS
differential scanning fluorimetry; intrinsic tryptophan fluorescence (LjKAI2b [2]): LjKAI2b^F158 recapitulated the response of LjKAI2a to GR24^ent-5DS
